{
  "source": "paper PMC7287031",
  "about": "(Pharmacology Research & Perspectives, 2020)",
  "key": {"[1]": {"target": "heat-treated human liver microsomes (Homo sapiens, UniProt P08684)", "sequence (P08684 2-503)": "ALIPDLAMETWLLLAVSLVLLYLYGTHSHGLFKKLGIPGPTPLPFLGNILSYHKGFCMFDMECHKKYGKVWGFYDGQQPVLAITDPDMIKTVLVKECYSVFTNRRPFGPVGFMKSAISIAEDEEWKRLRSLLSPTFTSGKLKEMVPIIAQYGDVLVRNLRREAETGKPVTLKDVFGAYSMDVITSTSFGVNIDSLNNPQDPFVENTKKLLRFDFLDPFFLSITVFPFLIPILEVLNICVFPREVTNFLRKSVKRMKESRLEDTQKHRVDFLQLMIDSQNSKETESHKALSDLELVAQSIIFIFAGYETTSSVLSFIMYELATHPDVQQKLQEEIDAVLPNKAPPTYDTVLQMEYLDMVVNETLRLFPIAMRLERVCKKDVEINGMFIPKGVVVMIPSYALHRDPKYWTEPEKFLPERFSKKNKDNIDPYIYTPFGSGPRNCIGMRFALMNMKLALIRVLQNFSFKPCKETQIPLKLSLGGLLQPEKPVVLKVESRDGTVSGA", "test": "Enzyme kinetics in heat-treated HLM (FMO inactivation)", "type": "in vitro ADME", "details": "human, microsomes", "protocol": "(§1) In vitro incubations were carried out in 100‐mM potassium phosphate buffer (pH 7.4) and 5‐mM MgCl2 with a total volume of 200 µL. Substrate and either human liver microsomes (HLM, BD Biosciences, mixed gender pool of n = 50) or recombinant human enzymes (BD Biosciences) were added and pre‐incubated for 3 minutes at 37°C. The reaction was started by addition of a fresh solution of NADPH (1 mmol/L final concentration). The samples were incubated at 37°C with agitation of 500 rpm. For incubations with CYP2A6, CYP2C9, CYP2C18, and CYP4A11, the phosphate buffer was replaced by TRIS buffer (100 mmol/L, pH 7.4) and for flavin‐containing monooxygenases (FMOs), a glycine buffer (50 mM, pH 9.5) was used.\n(§2) The enzymatic reaction was stopped and the protein was precipitated by addition of an equal volume of methanol. After 30 min at −80°C, the samples were centrifuged at 30'000 x g for 15 min. The supernatant was withdrawn. Aliquots were analyzed by LSC and the supernatant was diluted with water to obtain a final solution containing less than 20% of the organic solvent. For samples of low substrate concentration, supernatants were evaporated to dryness under nitrogen, then re‐suspended in water containing less than 20% of methanol. Samples were analyzed by HPLC combined with radiodetection. […]"}, "[2]": {"test_system": "heat-treated human liver microsomes (Homo sapiens)", "sequence (P08684 2-503)": "as above", "test": "Enzyme kinetics in heat-treated HLM (FMO inactivation)", "type": "in vitro ADME", "details": "heated vs non-heated control HLM", "protocol": "as §1, §2"}, "[3]": {"test_system": "plasma protein", "test": "In vitro plasma protein binding (ultrafiltration), human", "type": "in vitro ADME", "details": "rat, dog", "protocol": "(§3) Stock solutions were spiked into plasma to achieve the intended concentrations. After incubation for 1 hour at 37°C under constant gentle agitation, the spiked plasma samples (n = 3) were centrifuged (2000 g, 10 min, 37°C) in pre‐warmed Centrifree devices. Total radioactivity was determined in the ultrafiltrate (Cu, concentration of unbound compound) and in the sample introduced into the reservoir before ultrafiltration (Cp). The unbound (fu) and the bound (fb) fraction in plasma were calculated as follows: fu (%) = Cu/Cp × 100; fb (%) = 100‐Fu (%)."}, "[4]": {"test": "In vitro plasma protein binding (ultrafiltration), human", "type": "in vitro ADME", "details": "plasma, 10-10 000 ng/mL", "protocol": "as §3"}, "[5]": {"test": "Dog ADME study: excretion, mass balance, metabolite profiling with radiolabeled ribociclib", "type": "in vivo", "protocol": "ADME studies (including QWBA in pigmented and non‐pigmented rats) using radiolabeled ribociclib were conducted in rat and dog. Relevant institutional and national guides for the care and use of laboratory animals were followed.\nMetabolite profiling was conducted on plasma, urine, bile, and feces samples in the rat and dog ADME studies, and further metabolite profiling on plasma and milk was conducted in a dedicated rat milk excretion study.\nPlasma samples obtained from these studies were extracted with equal volumes of acetonitrile. Additional extractions of the protein pellet with acetonitrile and/or acetone were conducted as needed to maximize radioactivity recovery. Feces samples were initially extracted with two to four volumes of acetonitrile. Additional extractions of the pellet following centrifugation and removal of supernatant were conducted with acetonitrile and/or acetone as needed to maximize radioactivity recovery. Urine and bile samples were analyzed directly following centrifugation. Radioactivity recoveries following the centrifugation step were measured by LSC. Milk samples were extracted with two volumes of acetonitrile, following centrifugation and removal of supernatant, the pellets were re‐suspended in 100 µL of water and re‐extracted with 200 µL acetonitrile.\nMetabolite profiling in the ADME studies was conducted using liquid chromatography‐mass spectrometry. Radioactivity profiles were generated by diversion of the majority of the post‐column flow into 96‐well yttrium silicate scintillation‐coated plates (Deepwell Lumaplates; Perkin Elmer Life and Analytical Sciences Inc), by means of Gilson FC204 fraction collectors (Gilson). Metabolites were identified by mass spectrometry (Waters QTOF operating under MassLynx 4.1) and, where feasible, by comparison with authentic reference standards."}, "[6]": {"test_system": "CYP3A4", "test": "Kinetic analysis of ribociclib metabolite formation in HLM and enzyme contribution", "type": "in vitro ADME, human", "details": "both sexes, human, pooled human liver microsomes, pH 7.4; HLM; read-out: CLint attributed to CYP3A4", "protocol": "as §1\n(§4) The enzymatic reaction was stopped and the protein was precipitated by addition of an equal volume of methanol. […] The supernatant was withdrawn. Aliquots were analyzed by LSC and the supernatant was diluted with water to obtain a final solution containing less than 20% of the organic solvent. For samples of low substrate concentration, supernatants were evaporated to dryness under nitrogen, then re‐suspended in water containing less than 20% of methanol. Samples were analyzed by HPLC combined with radiodetection.\n(§5) Km and Vmax parameters were calculated by using SigmaPlot Version 8.0, Enzyme Kinetics module Version 1.1 software (SPSS Science Inc, Chicago, IL, USA). The intrinsic clearance was calculated by the equation: CLint = Vmax/Km.\n(§6) The intrinsic clearances (Vmax/Km) of each pathway were determined by enzyme kinetics."}, "[7]": {"test_system": "human liver microsomes", "test": "Kinetic analysis of ribociclib metabolite formation in HLM and enzyme contribution", "type": "in vitro ADME", "details": "metabolite formation kinetics", "protocol": "as §1, §4, §5, §6"}, "[8]": {"test": "Kinetic analysis of ribociclib metabolite formation in HLM and enzyme contribution", "type": "in vitro ADME, human", "details": "both sexes, human, pooled human liver microsomes, pH 7.4; HLM, sum of metabolite formation; read-out: CLint, Total of all pathways", "protocol": "as §1, §4, §5, §6"}, "[9]": {"test_system": "FMO3", "test": "Kinetic analysis of ribociclib metabolite formation in HLM and enzyme contribution", "type": "in vitro ADME, human", "details": "both sexes, human, pooled human liver microsomes, pH 7.4; HLM; read-out: CLint attributed to FMO3", "protocol": "as §1, §4, §5, §6"}, "[10]": {"details": "oral dosing of radiolabeled ribociclib"}},
  "data": [
    {"compound": "CN(C)C(=O)c1cc2cnc(Nc3ccc(N4CCNCC4)cn3)nc2n1C1CCCC1", "note": "[ribociclib, Ribociclib]", "values": [
      {"measurement": "Ki at 0.25 h", "setting": "[1]", "value": 328, "unit": "µM"},
      {"measurement": "FMO metabolism as share of intrinsic clearance in HLM", "setting": "[2]", "value": "about 15%"},
      {"measurement": "difference in unbound fraction in plasma between species", "setting": "[3]", "value": "up to 1.7 fold"},
      {"measurement": "fraction unbound at 1 h", "setting": "[4]", "value": "0.3 ± 0.02"},
      {"measurement": "Recovery of radioactivity in mass balance study", "setting": "[5]", "value": "approximately 90%"},
      {"measurement": "radioactivity found in feces", "setting": "[5]; [10]", "value": 68.8, "unit": "%"},
      {"measurement": "radioactivity found in urine", "setting": "[5]; [10]", "value": 18.5, "unit": "%"},
      {"measurement": "ribociclib in feces", "setting": "[5]; p.o.", "value": "10.7 % of the oral dose"},
      {"measurement": "unchanged ribociclib in urine", "setting": "[5]; p.o.", "value": "13.4 % of the dose"},
      {"measurement": "microsomal CLint", "setting": "[6]", "value": 23.3, "unit": "µL/min/mg"},
      {"measurement": "fm (Rel. Clint), CYP3A4 share of oxidative metabolism in HLM", "setting": "[7]", "value": 74, "unit": "%"},
      {"measurement": "fm (Rel. Clint), FMO3 / hepatic FMO share of oxidative metabolism in HLM", "setting": "[7]", "value": 26, "unit": "%"},
      {"measurement": "microsomal CLint", "setting": "[8]", "value": 31.5, "unit": "µL/min/mg"},
      {"measurement": "microsomal CLint", "setting": "[9]", "value": 8.19, "unit": "µL/min/mg"}
    ]}
  ]
}
